Values after ≈ are worked out from the molar mass of the structure shown.
Key:
Type in all cases: functional
Mannheimia haemolytica [1] = assay: Antimicrobial activity against Mannheimia haemolytica N811 after 17 hrs by serial agar dilution method
Pasteurella multocida [2] = assay: Antimicrobial activity against Pasteurella multocida isolate 6 after 17 hrs by serial agar dilution method
Pasteurella multocida [3] = assay: Antimicrobial activity against Pasteurella multocida M-17 after 17 hrs by serial agar dilution method; conditions: M-17, 17 h
Histophilus somni = assay: Antimicrobial activity against Histophilus somni 23N2359 after 17 hrs by serial agar dilution method; conditions: 23N2359, 17 h
[4] = test system: Actinobacillus pleuropneumoniae; assay: Antimicrobial activity against Actinobacillus pleuropneumoniae NB001 after 17 hrs by serial agar dilution method
Pasteurella multocida [5] = assay: Antimicrobial activity against Pasteurella multocida TS-8 after 17 hrs by serial agar dilution method
Mannheimia haemolytica [6] = assay: Antimicrobial activity against Mannheimia haemolytica N791 after 17 hrs by serial agar dilution method; conditions: N791, 17 h
Mannheimia haemolytica [7] = assay: Antimicrobial activity against Mannheimia haemolytica S801 after 17 hrs by serial agar dilution method
Pasteurella multocida [8] = assay: Antimicrobial activity against Pasteurella multocida Kobe after 17 hrs by serial agar dilution method
[9] = Mannheimia haemolytica, N811, 17 h, read-out: MIC
[10] = Pasteurella multocida, isolate 6, 17 h, read-out: MIC
[11] = Actinobacillus pleuropneumoniae, NB001, 17 h, read-out: MIC
[12] = Pasteurella multocida, TS-8, 17 h, read-out: MIC
[13] = Mannheimia haemolytica, S801, 17 h, read-out: MIC

Structure (SMILES) | MIC (Mannheimia haemolytica [1]; [9]) [µg/mL] | MIC (Pasteurella multocida [2]; [10]) [µg/mL] | MIC (Pasteurella multocida [3]) [µg/mL] | MIC (Histophilus somni) [µg/mL] | MIC [4, 11] [µg/mL] | MIC (Pasteurella multocida [5]; [12]) [µg/mL] | MIC (Mannheimia haemolytica [6]) [µg/mL] | MIC (Mannheimia haemolytica [7]; [13]) [µg/mL] | MIC (Pasteurella multocida [8]) [µg/mL] | MIC (Mannheimia haemolytica [1]) [µg/mL] | MIC (Pasteurella multocida [2]) [µg/mL] | MIC [4] [µg/mL] | MIC (Pasteurella multocida [5]) [µg/mL] | MIC (Mannheimia haemolytica [7]) [µg/mL]
CCC1(CCCCC/C=C\CCCCCCCC(=O)O)OCCO1 | 25 (≈ 73.4 µM) | > 50 | > 50 | > 50 | > 100 | 25 (≈ 73.4 µM) | 25 (≈ 73.4 µM) | 25 (≈ 73.4 µM) | 50 (≈ 147 µM) | – | – | – | – | –
CC[C@@H](O)CCCCC/C=C\CCCCCCCC(=O)NO | 25 (≈ 79.7 µM) | 12.5 (≈ 39.9 µM) | > 50 | > 50 | 50 (≈ 159 µM) | 50 (≈ 159 µM) | 25 (≈ 79.7 µM) | 50 (≈ 159 µM) | > 50 | – | – | – | – | –
CC/C(CCCCC/C=C\CCCCCCCC(=O)O)=N/O | 1.56 (≈ 5.01 µM) | 3.13 (≈ 10 µM) | > 50 | > 50 | 6.25 (≈ 20.1 µM) | 25 (≈ 80.3 µM) | 1.56 (≈ 5.01 µM) | 1.56 (≈ 5.01 µM) | > 50 | – | – | – | – | –
CC[C@@H](O)CCCCC/C=C\CCCCCCCc1nnn[nH]1 | 50 (≈ 155 µM) | 50 (≈ 155 µM) | 50 (≈ 155 µM) | 50 (≈ 155 µM) | 50 (≈ 155 µM) | 50 (≈ 155 µM) | 50 (≈ 155 µM) | 50 (≈ 155 µM) | 50 (≈ 155 µM) | – | – | – | – | –
CC[C@@H](O)CCCCC/C=C\CCCCCCCC(=O)NS(C)(=O)=O | 50 (≈ 133 µM) | 50 (≈ 133 µM) | > 50 | > 50 | > 50 | 25 (≈ 66.6 µM) | 50 (≈ 133 µM) | 25 (≈ 66.6 µM) | > 50 | – | – | – | – | –
CC[C@@H](O)CCCCC/C=C\CCCCCCCC(=O)O (stereo in doubt; 1) [PALEIC ACID] | 1.56 (≈ 5.23 µM) | 6.25 (≈ 20.9 µM) | > 50 | > 50 | 6.25 (≈ 20.9 µM) | 3.13 (≈ 10.5 µM) | 0.78 (≈ 2.61 µM) | 1.56 (≈ 5.23 µM) | > 50 | – | – | – | – | –
CC[C@@H](O)CCCCC/C=C\CCCCCCCC(=O)O (stereo in doubt; 2) [PALEIC ACID] | – | – | – | – | – | – | – | – | – | 0.78 (≈ 2.61 µM) | 12.5 (≈ 41.9 µM) | 6.25 (≈ 20.9 µM) | 6.25 (≈ 20.9 µM) | 0.78 (≈ 2.61 µM)
CC[C@@H](O)CCCCC/C=C\CCCCCCCC(N)=O | 12.5 (≈ 42 µM) | > 50 | > 50 | > 50 | > 50 | 50 (≈ 168 µM) | 25 (≈ 84 µM) | 50 (≈ 168 µM) | > 50 | – | – | – | – | –
CCC(=O)CCCCC/C=C\CCCCCCCC(=O)O | 6.25 (≈ 21.1 µM) | 50 (≈ 169 µM) | > 50 | > 50 | 6.25 (≈ 21.1 µM) | 50 (≈ 169 µM) | 3.13 (≈ 10.6 µM) | 6.25 (≈ 21.1 µM) | > 50 | – | – | – | – | –
CC[C@H](O)CCCCC/C=C\CCCCCCCC(=O)O | 0.78 (≈ 2.61 µM) | 50 (≈ 168 µM) | > 50 | > 50 | 12.5 (≈ 41.9 µM) | 6.25 (≈ 20.9 µM) | 0.78 (≈ 2.61 µM) | 0.39 (≈ 1.31 µM) | > 50 | – | – | – | – | –

— ChEMBL document CHEMBL1255519, “The synthesis of paleic acid, an antimicrobial agent effective against Mannheimia and Pasteurella, and its structurally related derivatives” (2010)
